Assay results taken from patent US9884089B2, “BPI and its congeners as radiation mitigators and radiation protectors” (Dana-Farber Cancer Institute, Inc., priority 2011, dated 2018).
Marks after values point to notes of the source that are not given here.

Key:
[1] = tested on: BALB/c mice after 7 Gy TBI; experiment: In vivo radiation mitigation: survival after 7 Gy TBI; set-up: species or system mouse; conditions: 7 Gy TBI (LD95/30), treatment initiated 24 hours after irradiation; Mantel-Cox log-rank
Procedure: (§1) Male BALB/c mice (Stock #028, Charles River, Wilmington, Mass.) were acclimated prior to irradiation at age 12 weeks. Studies were conducted in accordance with Dana-Farber Cancer Institute's ACUC-approved policies and protocols. Mice were placed into a Rad Disk™ rodent microisolation irradiation cage (Braintree Scientific, Braintree, Mass.) and administered a single 7 Gy dose by a Gammacell® 40Exactor (Best Theratronics, Ottawa, Ontario) cesium source irradiator. […]
For the human HSCT study, samples with undetectable analytes were assigned a value at half the lower limit of detection. For ANC, PLT, BPI, TLR4 and IL-6, data were analyzed after logarithmic transformation, as this yielded distributions that were more approximately normal. […] Comparisons between subjects with or without fever were evaluated using the Mann-Whitney test. When assessing correlations between different parameters, within-subject correlations were calculated using the Spearman correlation coefficient and data from multiple time-points. The calculated coefficients were averaged over the different subjects and significance tested with the signed rank test. […] Two tailed t tests (Mann-Whitney) are performed throughout except for citrulline data in which the data were analyzed by 1-sample t test as compared to theoretical mean of 100% and for hematologic analyses (Table 1) in which unpaired t tests were performed. […]

[2] = tested on: BALB/c mice after 7 Gy TBI; experiment: Peripheral blood counts after TBI (CBC, Hemavet); format: in vivo, mouse; conditions: median; for WBC: treatment started 24 h after irradiation
Procedure: Male BALB/c mice (Stock #028, Charles River, Wilmington, Mass.) were acclimated prior to irradiation at age 12 weeks. Studies were conducted in accordance with Dana-Farber Cancer Institute's ACUC-approved policies and protocols. Mice were placed into a Rad Disk™ rodent microisolation irradiation cage (Braintree Scientific, Braintree, Mass.) and administered a single 7 Gy dose by a Gammacell® 40Exactor (Best Theratronics, Ottawa, Ontario) cesium source irradiator. […] Moribund mice were euthanized via CO, asphyxiation. At scheduled time points, mice were sacrificed humanely via isoflurane anesthetic overdose (IsoFlo®-Abbott Labs, Abbott Park, Ill.).
CBCs were performed on a Hemavet 950 FS hematology analyzer (Drew Scientific, Waterbury, Conn.) with EDTA-anticoagulated (Becton-Dickinson, Franklin Lakes, N.J.) cardiac blood. Plasma was obtained by mixing blood with pyrogen-free heparin (APP Pharmaceutical, Schaumburg, Ill.), in pyrogen-free Eppendorf tubes (USA Scientific) and centrifugation at 14,000 rpm for 10 minutes. Single use aliquots were stored at −80° C. In some studies, femurs and tibiae from one leg/animal were dissected, fixed for 24 hours in 10% neutral buffered formalin (Fisher Scientific, Pittsburgh, Pa.), and processed, including coronal sectioning and hematoxylin and eosin (H&E) staining (Specialized Histopathology Services-Longwood, Boston, Mass.). […] Red blood cells were lysed with hypotonic lysing buffer (Sigma).

[3] = tested on: BM of BALB/c mice after 7 Gy TBI; experiment: Femoral BM cellularity by histopathology; format: in vivo, mouse; conditions: D19 after 7 Gy
Procedure: as §1
A Board-certified hematopathologist (JK) assessed femoral BM cellularity on decalcified, formalin fixed, H&E stained paraffin-fixed sections using an Olympus BX51 microscope and an Olympus DP71 camera with DP Capture software. For each animal, 2 slides with 2 fields/slide were scored for the percent of BM space occupied by hematopoietic cells. […]

SMILES: CCN1CCN(c2cc3c(cc2F)c(=O)c(C(=O)O)cn3C2CC2)CC1 [ENR, enrofloxacin]
- D30 survival [1]: some survival benefit
- WBC ([2]; D15 after 7 Gy TBI): 0.24 ▴ K/μL
- Hb ([2]; D15 after 7 Gy TBI): 8.80 ▴ ▪ g/dL
- Monocytes ([2]; D15 after 7 Gy TBI): 0 ▴ ● K/μL
- Neutrophils ([2]; D15 after 7 Gy TBI): 0 ▴ ● K/μL
- PLT ([2]; D15 after 7 Gy TBI): 196 ▴ K/μL
- WBC ([2]; D19 after 7 Gy TBI): 0.21 ▴ K/μL
- Hb ([2]; D19 after 7 Gy TBI): 8.35 ▴ ▪ g/dL
- Monocytes ([2]; D19 after 7 Gy TBI): 0 ▴ ● ▪ K/μL
- Neutrophils ([2]; D19 after 7 Gy TBI): 0 ▴ ● ▪ K/μL
- PLT ([2]; D19 after 7 Gy TBI): 250.5 ▴ K/μL
- WBC ([2]; D30 after 7 Gy TBI): 1.84 ▴ ● K/μL
- Hb ([2]; D30 after 7 Gy TBI): 13.1 ▴ g/dL
- Monocytes ([2]; D30 after 7 Gy TBI): 0.14 ● K/μL
- Neutrophils ([2]; D30 after 7 Gy TBI): 0.55 ● K/μL
- PLT ([2]; D30 after 7 Gy TBI): 713.5 ▴ K/μL
- BM cellularity [3]: < 5%
